Assays:
Type in all cases: cell-based, murine
Pan02 cells = test: In vitro cell viability assay (CellTiter-Glo), Pan02
Description: No significant changes in body weights were noted.

A20 cells = test: In vitro cell viability assay, A20
MBT-2 cells = test: In vitro cell viability assay, MBT-2

With N.N.[Cl][Pt][Cl] [Cisplatin, reference compound] the IC50 (Pan02 cells) was 1090 nM, the IC50 (A20 cells) was 1070 nM and the IC50 (MBT-2 cells) was 6870 nM.
